What was measured:
human B1R = target: T1, human B1R (Homo sapiens, UniProt P46663); assay: Functional investigation on the bradykinin 1 receptor, cell-based fluorescent calcium-mobilization assay (FLIPR), human; details: 10 μM test substance; CHO K1 cells transfected with human B1R gene; agonist Lys-Des-Arg9-bradykinin at EC80; % of maximum achievable inhibition
T1 construct: expressed in transfected cells; host or cells: CHO K1 cells (stably transfected)
T1 sequence (P46663 1-353): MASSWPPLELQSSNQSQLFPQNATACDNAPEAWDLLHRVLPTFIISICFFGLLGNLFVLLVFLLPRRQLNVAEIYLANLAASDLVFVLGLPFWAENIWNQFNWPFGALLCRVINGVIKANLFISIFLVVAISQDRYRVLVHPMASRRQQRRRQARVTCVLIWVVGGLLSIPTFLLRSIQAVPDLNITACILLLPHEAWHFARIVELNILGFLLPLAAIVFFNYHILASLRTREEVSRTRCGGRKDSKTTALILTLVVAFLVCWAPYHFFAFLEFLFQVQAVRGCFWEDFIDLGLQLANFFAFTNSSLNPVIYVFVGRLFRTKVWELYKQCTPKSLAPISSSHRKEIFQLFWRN
Protocol: (§1) The agonistic or antagonistic action of substances can be quantified on the bradykinin 1 receptor (B1R) of the human and rat species with ectopically expressing cell lines (CHO K1 cells) and with the aid of a Ca2+-sensitive dye (Fluo-4) using a fluorescent imaging plate reader (FLIPR). The value in % activation is based on the Ca2+ signal after addition of Lys-Des-Arg9 bradykinin (0.5 nM) or Des-Arg9 bradykinin (100 nM). Antagonists lead to a suppression of the Ca2+ influx following administration of the agonist. The % inhibition in comparison with the maximum achievable inhibition is indicated.
(§2) The agonistic or antagonistic action of substances can be determined on the bradykinin 1 receptor (B1R) of humans and rats by means of a cell-based fluorescent calcium-mobilization assay. According to this assay agonist-induced increase of intracellular free Ca^2+ is quantified by means of a Ca^2+-sensitive dye (Fluo-4 type, Molecular Probes Europe BV, Leiden, Netherlands), in a Fluorescent Imaging Plate Reader (FLIPR, Molecular Devices, Sunnyvale, USA) and/or the Novostar (BMG Labtech GmbH, Offenburg, Germany).
(§3) Chinese hamster ovary cells (CHO K1 cells), which are stably transfected with the human B1R gene (hB1R cells), or with the B1R gene of rats (rB1R cells) are used. For functional investigations these cells are seeded into black 96-well plates with a clear bottom (BD Biosciences, Heidelberg, Germany or Greiner, Frickenhausen, Germany) in a density of 20,000-35,000 cells/well. The cells are incubated overnight in a humidified atmosphere at 37° C. and 5% CO2 in culture medium (hB1R cells: Nutrient Mixture Ham's F12, Gibco Invitrogen GmbH, Karlsruhe, Germany or DMEM, Sigma-Aldrich, Taufkirchen, Germany; rB1R cells: D-MEM/F12, Gibco Invitrogen GmbH, Karlsruhe, Germany) with 10 vol. % FBS (foetal bovine serum, Gibco Invitrogen GmbH, Karlsruhe, Germany). On the following day the cells are loaded with the Ca^2+-sensitive dye Fluo-4-AM (Molecular Probes Europe BV, Leiden, Netherlands):
(§4) Method A: The medium of the cells is removed and cell plates are incubated with loading solution, which contains 2.13 μM Fluo-4-AM, 2.5 mM probenecid (Sigma-Aldrich, Taufkirchen, Germany), and 10 mM HEPES (Sigma-Aldrich, Taufkirchen, Germany) in HBSS buffer (Hank's buffered saline solution, Gibco Invitrogen GmbH, Karlsruhe, Germany) for 60 minutes at 37° C. After the plates are washed twice with HBSS buffer, HBSS buffer supplemented 0.1% BSA (bovine serum albumin; Sigma-Aldrich, Taufkirchen, Germany), 5.6 mM glucose and 0.05% gelatine (Merck KGaA, Darmstadt, Germany) is added. Cell plates are incubated for at least 20 minutes in the dark at room temperature before they are used for the Ca^2+ measurement in the FLIPR or Novostar. Method B: The plates are washed with buffer A (15 mM HEPES, 80 mM NaCl, 5 mM KCl, 1.2 mM CaCl2, 0.7 mM MgSO4, 2 mg/ml glucose, 2.5 mM probenecid) and subsequently loaded with buffer A containing 2.4 μM Fluo-4-AM and 0.025% pluronic F127 (Sigma-Aldrich, Taufkirchen, Germany) for 60 minutes at 37° C. Cell plates are washed twice with buffer A. Then, buffer A supplemented with 0.05% BSA and 0.05% gelatine is added and cell plates are incubated in the dark at room temperature for at least 20 minutes before measurement in the FLIPR or Novostar is started.
(§5) The Ca^2+-dependent fluorescence is measured both before and after the addition of substances (λex=488 nm, λem=540 nm). For quantification of the effect the highest fluorescence intensity (FC, fluorescence counts) over time is given.
(§6) The FLIPR protocol consists of two substance additions, done within the instrument while continuously monitoring the Ca^2+-dependent fluorescence at 540 nm. When the Novostar was used, one addition had to be done outside the instrument. First of all test substances (10 μM) are pipetted onto the cells and the intracellular Ca^2+ rise is compared with the control (hB1R: Lys-Des-Arg9-bradykinin >=50 nM; rB1R: Des-Arg9-bradykinin >=1 μM). […]

rat B1R = target: T2, rat B1R (Rattus norvegicus, UniProt P97583); assay: Functional investigation on the bradykinin 1 receptor, cell-based fluorescent calcium-mobilization assay (FLIPR), rat; details: 10 μM test substance; CHO K1 cells transfected with rat B1R gene; agonist Des-Arg9-bradykinin at EC80; % of maximum achievable inhibition
T2 construct: expressed in transfected cells; host or cells: CHO K1 cells (stably transfected)
T2 sequence (P97583 1-337): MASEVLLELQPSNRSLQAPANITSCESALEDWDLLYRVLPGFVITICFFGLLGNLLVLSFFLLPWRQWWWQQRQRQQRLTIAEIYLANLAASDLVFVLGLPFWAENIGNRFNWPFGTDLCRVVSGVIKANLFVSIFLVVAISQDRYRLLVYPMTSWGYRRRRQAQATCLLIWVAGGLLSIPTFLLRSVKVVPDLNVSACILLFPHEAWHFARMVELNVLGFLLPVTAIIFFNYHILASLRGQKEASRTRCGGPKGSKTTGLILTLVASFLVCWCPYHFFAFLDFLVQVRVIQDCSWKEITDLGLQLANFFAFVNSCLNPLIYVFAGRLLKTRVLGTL
Protocol: as §1, §2, §3, §4, §5, §6

| Structure (SMILES) | inhibition at 10 µM (human B1R) [%] | inhibition at 10 µM (rat B1R) [%] |
| --- | --- | --- |
| COc1cc(C)c(S(=O)(=O)N2CCn3cccc3C2CCCC(=O)N[C@H]2CCC[C@@H](N3CCN(C)CC3)C2)c(C)c1 (relative stereo) [CC-07, 4-[2-[(4-Methoxy-2,6-dimethyl-phenyl)sulfonyl]-1,2,3,4-tetrahydro-pyrrolo[1,2-a]pyrazin-1-yl]-N-[cis-3-(4-methyl-piperazin-1-yl)-cyclohexyl]-butyramide] | 86 | 101 |
| CN1CCN([C@@H]2CCC[C@H](NC(=O)CCC3c4cccn4CCN3S(=O)(=O)c3cccc(C(F)(F)F)c3)C2)CC1 (relative stereo) [CC-10, N-[cis-3-(4-Methyl-piperazin-1-yl)-cyclohexyl]-3-[2-[[3-(trifluoromethyl)phenyl]sulfonyl]-1,2,3,4-tetrahydro-pyrrolo[1,2-a]pyrazin-1-yl]-propionamide] | 29 | 36 |
| COc1cc(C)c(S(=O)(=O)N2CCn3cccc3C2COCC(=O)N(C)C2CC(N3CCN(C)CC3)C2)c(C)c1 (stereo not shown) [CC-58, 2-[[2-[(4-Methoxy-2,6-dimethyl-phenyl)sulfonyl]-1,2,3,4-tetrahydro-pyrrolo[1,2-a]pyrazin-1-yl]-methoxy]-N-methyl-N-[3-(4-methyl-piperazin-1-yl)-cyclobutyl]-acetamide] | 38 | 88 |
| COc1cc(C)c(S(=O)(=O)N2CCn3cccc3C2CCCC(=O)N(C)C2CC(N3CCN(C)CC3)C2)c(C)c1 (stereo not shown) [CC-59, 4-[2-[(4-Methoxy-2,6-dimethyl-phenyl)sulfonyl]-1,2,3,4-tetrahydro-pyrrolo[1,2-a]pyrazin-1-yl]-N-methyl-N-[3-(4-methyl-piperazin-1-yl)-cyclobutyl]-butyramide] | 80 | 97 |
| COc1ccc2cc(S(=O)(=O)N3CCn4cccc4C3CC(=O)N(C)C3CC(N4CCN(C)CC4)C3)ccc2c1 (stereo not shown) [CC-60, 2-[2-[(6-Methoxy-naphthalen-2-yl)sulfonyl]-1,2,3,4-tetrahydro-pyrrolo[1,2-a]pyrazin-1-yl]-N-methyl-N-[3-(4-methyl-piperazin-1-yl)-cyclobutyl]-acetamide] | 99 | 106 |
| CN1CCN(C2CC(N(C)C(=O)CCC3c4cccn4CCN3S(=O)(=O)c3cccc(C(F)(F)F)c3)C2)CC1 (stereo not shown) [CC-61, N-Methyl-N-[3-(4-methyl-piperazin-1-yl)-cyclobutyl]-3-[2-[[3-(trifluoromethyl)phenyl]sulfonyl]-1,2,3,4-tetrahydro-pyrrolo[1,2-a]pyrazin-1-yl]-propionamide] | 12 | 14 |
| COc1cc(C)c(S(=O)(=O)N2CCn3cccc3C2COCC(=O)N(C)[C@H]2CCC[C@@H](N3CCN(C)CC3)C2)c(C)c1 (stereo partly drawn) [SC-01, 2-[[2-[(4-Methoxy-2,6-dimethyl-phenyl)sulfonyl]-1,2,3,4-tetrahydro-pyrrolo[1,2-a]pyrazin-1-yl]-methoxy]-N-methyl-N-[(1S,3R)-3-(4-methyl-piperazin-1-yl)-cyclohexyl]-acetamide] | 100 | 103 |
| Cc1cccc(Cl)c1S(=O)(=O)N1CCn2cccc2C1COCC(=O)N(C)[C@H]1CCC[C@@H](N2CCN(C)CC2)C1 (stereo partly drawn) [SC-02, 2-[[2-[(2-Chloro-6-methyl-phenyl)sulfonyl]-1,2,3,4-tetrahydro-pyrrolo[1,2-a]pyrazin-1-yl]-methoxy]-N-methyl-N-[(1S,3R)-3-(4-methyl-piperazin-1-yl)-cyclohexyl]-acetamide] | 100 | 105 |
| Cc1cc(S(=O)(=O)N2CCn3cccc3C2CCC(=O)N(C)[C@H]2CCC[C@@H](N3CCN(C)CC3)C2)c(C)cc1Cl (stereo partly drawn) [SC-03, 3-[2-[(4-Chloro-2,5-dimethyl-phenyl)sulfonyl]-1,2,3,4-tetrahydro-pyrrolo[1,2-a]pyrazin-1-yl]-N-methyl-N-[(1S,3R)-3-(4-methyl-piperazin-1-yl)-cyclohexyl]-propionamide] | 95 | 61 |
| COc1cc(C)c(S(=O)(=O)N2CCn3cccc3C2COCC(=O)N(C)C2CCC(N3CCN(C)CC3)CC2)c(C)c1 (stereo not shown) [SC-05, 2-[[2-[(4-Methoxy-2,6-dimethyl-phenyl)sulfonyl]-1,2,3,4-tetrahydro-pyrrolo[1,2-a]pyrazin-1-yl]-methoxy]-N-methyl-N-[4-(4-methyl-piperazin-1-yl)-cyclohexyl]-acetamide] | 101 | 100 |
| COc1cc(C)c(S(=O)(=O)N2CCn3c(C)ccc3C2COCC(=O)N(C)[C@H]2CCC[C@@H](N3CCN(C)CC3)C2)c(C)c1 (stereo partly drawn) [SC-06, 2-[[2-[(4-Methoxy-2,6-dimethyl-phenyl)sulfonyl]-6-methyl-1,2,3,4-tetrahydro-pyrrolo[1,2-a]pyrazin-1-yl]-methoxy]-N-methyl-N-[(1S,3R)-3-(4-methyl-piperazin-1-yl)-cyclohexyl]-acetamide] | 97 | 110 |

Reference: US20120058999A1, “Substituted Tetrahydropyrrolopyrazine Compounds” (Gruenenthal GmbH, priority 2010, published 2012)
